The numbers were not newly measured in patent USRE46284E1, “Method of administrating an anticancer drug containing α, α, α-trifluorothymidine and thymidine phosphorylase inhibitor” (TAIHO PHARMACEUTICAL CO., LTD., priority 2005, dated 2017), which cites them from elsewhere.

The conditions of the series: human, intravenous administration.

Take `O=c1[nH]c(=O)n([C@H]2C[C@H](O)[C@@H](CO)O2)cc1C(F)(F)F` [FTD, α,α,α-trifluorothymidine]: the “half-life in the blood” value was “approximately 12 minutes”.
